Measurements taken from BindingDB's records for doi:10.1016/j.bmc.2007.03.014 (Universit&#233, 2007).

Assay: Reversal of P-gp-mediated multidrug resistance to vinblastine in human CEM/VLB500 cells after 3 days by resazurin assay

Row | SMILES | EC50 [nM]
1 | COc1cc2c(cc1OC)CN(CCc1ccc(NC(=O)c3cc(OC)c(OC)cc3NC(=O)c3cnc4ccccc4c3)cc1)CC2 | 68
2 | COc1ccc(CCN2CCC[C@@H]2CNC(=O)c2ccccc2NC(=O)c2cnc3ccccc3c2)cc1OC [(R) N-(2-((1-(3,4-dimethoxyphenethyl)pyrrolidin-2-yl)methylcarbamoyl)phenyl)quinoline-3-carboxamide] | 482
3 | COc1ccc(CCN2CCC[C@H]2CNC(=O)c2ccccc2NC(=O)c2cnc3ccccc3c2)cc1OC [(S) N-(2-((1-(3,4-dimethoxyphenethyl)pyrrolidin-2-yl)methylcarbamoyl)phenyl)quinoline-3-carboxamide] | 329
4 | COc1ccc(CN2CCN(c3ccc(NC(=O)c4cc(OC)c(OC)cc4NC(=O)c4cnc5ccccc5c4)cc3)CC2)cc1OC [N-(2-(4-(4-(3,4-dimethoxybenzyl)piperazin-1-yl)phenylcarbamoyl)-4,5-dimethoxyphenyl)quinoline-3-carboxamide] | 59

Second part, the compound after the results:

Row | EC50 [nM] | SMILES
5 | 648 | O=C(Nc1ccccc1C(=O)N[C@@H]1CCCC[C@@H]1N1CCN(c2ccccc2)CC1)c1cnc2ccccc2c1 (racemic) [rac-cis-N-(2-(2-(4-phenylpiperazin-1-yl)cyclohexylcarbamoyl)phenyl)quinoline-3-carboxamide]
6 | 124 | COc1ccc(CN2CCN(c3ccc(NC(=O)c4ccccc4NC(=O)c4cnc5ccccc5c4)cc3)CC2)cc1OC [N-(2-(4-(4-(3,4-dimethoxybenzyl)piperazin-1-yl)phenylcarbamoyl)phenyl)quinoline-3-carboxamide]
